Values of other authors in patent US20180147141A1, “CHEWING GUM COMPOSITION COMPRISING CANNABINOIDS AND GABAPENTIN” (AXIM Biotechnologies, Inc., priority 2016, published 2018).

Test system: GABA receptors
Conditions: at concentrations at or below 1 millimolar

Structure (SMILES): NCC1(CC(=O)O)CCCCC1 [Gabapentin, 1-(aminomethyl)cyclohexaneacetic acid]
- binding to GABA receptors: has not been shown to bind
